# Where two headings read alike, the source gives them in different places.
# What was measured:
# Assay in all cases: KiNativ assay
# Format in all cases: binding
# Conditions in all cases: H929 live cell
# ABL, ARG = tested on: ABL, ARG
# Experimental: (§1) Biochemical IC50s of the compounds of the present disclosure against various kinases were measured in a KiNativ assay. Compounds were screened in duplicate at 10 μM in H929 live cell. IC50 was measured via Mass spectroscopy (MS).
# ATR = ATR (Homo sapiens (Human), UniProt Q13535)
# Experimental: as §1
# CDK5 = CDK5 (Homo sapiens (Human), UniProt Q00535)
# Experimental: as §1
# CK1a = CK1a (Homo sapiens (Human), UniProt P48729)
# Experimental: as §1
# CLK2 = CLK2 (Homo sapiens (Human), UniProt P49760)
# Experimental: as §1
# CSK = CSK (Homo sapiens (Human), UniProt P41240)
# Experimental: as §1
# CaMK1d = CaMK1d (Homo sapiens (Human), UniProt Q8IU85)
# Experimental: as §1
# [1] = tested on: CaMK2a, CaMK2b, CaMK2d, CaMK2g
# Experimental: as §1
# CaMK2g = CaMK2g (Homo sapiens (Human), UniProt Q13555)
# Experimental: as §1
# Erk1 = Erk1 (Homo sapiens (Human), UniProt P27361)
# Experimental: as §1
# Erk2 = Erk2 (Homo sapiens (Human), UniProt P28482)
# Experimental: as §1
# GSK3A = GSK3A (Homo sapiens (Human), UniProt P49840)
# Experimental: as §1
# IKKb = IKKb (Homo sapiens (Human), UniProt O14920)
# Experimental: as §1
# ILK = ILK (Homo sapiens (Human), UniProt Q13418)
# Experimental: as §1
# IRAK4 = IRAK4 (Homo sapiens (Human), UniProt Q9NWZ3)
# Experimental: as §1
# MAP2K6 = MAP2K6 (Homo sapiens (Human), UniProt P52564)
# Experimental: as §1
# MARK2 = MARK2 (Homo sapiens (Human), UniProt Q7KZI7)
# Experimental: as §1
# MARK3 = MARK3 (Homo sapiens (Human), UniProt P27448)
# Experimental: as §1
# MAST3 = MAST3 (Homo sapiens (Human), UniProt O60307)
# Experimental: as §1
# MLK3 = MLK3 (Homo sapiens (Human), UniProt Q16584)
# Experimental: as §1
# NDR1 = NDR1 (Homo sapiens (Human), UniProt Q15208)
# Experimental: as §1
# NEK1 = NEK1 (Homo sapiens (Human), UniProt Q96PY6)
# Experimental: as §1
# NEK8 = NEK8 (Homo sapiens (Human), UniProt Q86SG6)
# Experimental: as §1
# PI4KB = PI4KB (Homo sapiens (Human), UniProt Q9UBF8)
# Experimental: as §1
# PIK3C3 = PIK3C3 (Homo sapiens (Human), UniProt Q8NEB9)
# Experimental: as §1
# PIK3CG = PIK3CG (Homo sapiens (Human), UniProt P48736)
# Experimental: as §1
# [2] = tested on: RSK1 domain1, RSK2 domain1, RSK3 domain1
# Experimental: as §1
# RSK2 domain2 = RSK2 domain2 (Homo sapiens (Human), UniProt P51812)
# Experimental: as §1
# SLK = SLK (Homo sapiens (Human), UniProt Q9H2G2)
# Experimental: as §1
# SRPK1 = SRPK1 (Homo sapiens (Human), UniProt Q96SB4)
# Experimental: as §1
# STLK3 = STLK3 (Homo sapiens (Human), UniProt Q9UEW8)
# Experimental: as §1
# TAO1, TAO3 = tested on: TAO1, TAO3
# Experimental: as §1
# p38d, p38g = tested on: p38d, p38g
# Experimental: as §1
# [3] = range class, read-out: % inhibition
# Chain of NEK8 (Q86SG6 whole entry): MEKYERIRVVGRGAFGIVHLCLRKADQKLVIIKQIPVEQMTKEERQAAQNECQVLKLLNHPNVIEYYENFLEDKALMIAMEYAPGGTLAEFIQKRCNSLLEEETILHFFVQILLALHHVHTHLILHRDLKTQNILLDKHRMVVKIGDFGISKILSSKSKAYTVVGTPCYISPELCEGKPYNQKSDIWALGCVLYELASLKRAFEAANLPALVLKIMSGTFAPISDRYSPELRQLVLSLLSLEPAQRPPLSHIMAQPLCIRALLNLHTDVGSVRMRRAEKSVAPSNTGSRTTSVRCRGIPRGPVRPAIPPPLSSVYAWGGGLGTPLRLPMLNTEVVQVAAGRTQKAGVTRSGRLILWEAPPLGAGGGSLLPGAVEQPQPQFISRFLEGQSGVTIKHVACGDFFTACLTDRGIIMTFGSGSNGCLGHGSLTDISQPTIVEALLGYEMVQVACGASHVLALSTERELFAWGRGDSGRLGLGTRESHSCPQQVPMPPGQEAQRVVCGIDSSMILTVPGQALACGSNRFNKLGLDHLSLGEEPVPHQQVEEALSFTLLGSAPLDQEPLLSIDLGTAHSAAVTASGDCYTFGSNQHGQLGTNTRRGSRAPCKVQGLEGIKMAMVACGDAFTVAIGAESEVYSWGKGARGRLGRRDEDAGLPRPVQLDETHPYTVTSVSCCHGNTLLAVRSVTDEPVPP
# Chain of NEK1 (Q96PY6 whole entry): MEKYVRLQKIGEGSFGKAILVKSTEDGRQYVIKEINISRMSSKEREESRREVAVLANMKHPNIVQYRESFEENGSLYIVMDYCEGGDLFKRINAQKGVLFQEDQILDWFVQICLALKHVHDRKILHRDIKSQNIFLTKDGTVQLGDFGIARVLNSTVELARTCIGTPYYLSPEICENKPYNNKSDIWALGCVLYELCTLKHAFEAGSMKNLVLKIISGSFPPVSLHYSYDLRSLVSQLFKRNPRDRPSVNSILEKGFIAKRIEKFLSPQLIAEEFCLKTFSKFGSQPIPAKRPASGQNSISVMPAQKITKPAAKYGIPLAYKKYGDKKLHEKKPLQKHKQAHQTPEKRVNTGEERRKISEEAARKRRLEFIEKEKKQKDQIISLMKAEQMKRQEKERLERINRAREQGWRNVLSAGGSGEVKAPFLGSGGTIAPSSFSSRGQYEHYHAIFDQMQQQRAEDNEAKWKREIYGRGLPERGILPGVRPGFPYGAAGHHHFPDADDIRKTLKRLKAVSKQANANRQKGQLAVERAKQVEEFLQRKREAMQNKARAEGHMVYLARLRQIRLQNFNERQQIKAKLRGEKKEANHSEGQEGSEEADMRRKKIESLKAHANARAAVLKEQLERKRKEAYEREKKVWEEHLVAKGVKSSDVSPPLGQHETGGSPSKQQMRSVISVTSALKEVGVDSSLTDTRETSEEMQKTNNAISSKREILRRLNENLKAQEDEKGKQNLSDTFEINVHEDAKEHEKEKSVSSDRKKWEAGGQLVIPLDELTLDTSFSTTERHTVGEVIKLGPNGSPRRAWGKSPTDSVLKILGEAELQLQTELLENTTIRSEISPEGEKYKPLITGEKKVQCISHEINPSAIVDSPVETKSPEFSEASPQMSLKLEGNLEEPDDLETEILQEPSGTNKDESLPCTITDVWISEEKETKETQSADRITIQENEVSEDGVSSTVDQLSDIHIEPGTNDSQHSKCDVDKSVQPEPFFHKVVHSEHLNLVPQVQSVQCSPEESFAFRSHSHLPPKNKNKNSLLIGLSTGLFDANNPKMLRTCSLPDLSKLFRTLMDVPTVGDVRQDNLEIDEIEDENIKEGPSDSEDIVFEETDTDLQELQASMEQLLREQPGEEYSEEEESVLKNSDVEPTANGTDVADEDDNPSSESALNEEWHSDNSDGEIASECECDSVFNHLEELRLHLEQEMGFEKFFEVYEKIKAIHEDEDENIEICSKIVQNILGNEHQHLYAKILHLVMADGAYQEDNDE
# Chain of ILK (Q13418 whole entry): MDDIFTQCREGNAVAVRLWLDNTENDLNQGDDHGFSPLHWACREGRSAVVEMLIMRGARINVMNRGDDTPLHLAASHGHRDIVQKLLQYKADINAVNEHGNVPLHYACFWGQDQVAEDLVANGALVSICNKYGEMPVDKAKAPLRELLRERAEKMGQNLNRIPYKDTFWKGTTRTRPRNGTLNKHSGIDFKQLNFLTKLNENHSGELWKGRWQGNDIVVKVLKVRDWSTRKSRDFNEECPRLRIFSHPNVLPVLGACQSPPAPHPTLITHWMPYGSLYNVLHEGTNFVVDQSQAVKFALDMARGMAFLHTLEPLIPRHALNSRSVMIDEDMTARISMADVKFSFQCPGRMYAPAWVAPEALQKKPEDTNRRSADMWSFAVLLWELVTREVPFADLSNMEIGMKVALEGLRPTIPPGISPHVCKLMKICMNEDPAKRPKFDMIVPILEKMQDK
# Chain of SLK (Q9H2G2 whole entry): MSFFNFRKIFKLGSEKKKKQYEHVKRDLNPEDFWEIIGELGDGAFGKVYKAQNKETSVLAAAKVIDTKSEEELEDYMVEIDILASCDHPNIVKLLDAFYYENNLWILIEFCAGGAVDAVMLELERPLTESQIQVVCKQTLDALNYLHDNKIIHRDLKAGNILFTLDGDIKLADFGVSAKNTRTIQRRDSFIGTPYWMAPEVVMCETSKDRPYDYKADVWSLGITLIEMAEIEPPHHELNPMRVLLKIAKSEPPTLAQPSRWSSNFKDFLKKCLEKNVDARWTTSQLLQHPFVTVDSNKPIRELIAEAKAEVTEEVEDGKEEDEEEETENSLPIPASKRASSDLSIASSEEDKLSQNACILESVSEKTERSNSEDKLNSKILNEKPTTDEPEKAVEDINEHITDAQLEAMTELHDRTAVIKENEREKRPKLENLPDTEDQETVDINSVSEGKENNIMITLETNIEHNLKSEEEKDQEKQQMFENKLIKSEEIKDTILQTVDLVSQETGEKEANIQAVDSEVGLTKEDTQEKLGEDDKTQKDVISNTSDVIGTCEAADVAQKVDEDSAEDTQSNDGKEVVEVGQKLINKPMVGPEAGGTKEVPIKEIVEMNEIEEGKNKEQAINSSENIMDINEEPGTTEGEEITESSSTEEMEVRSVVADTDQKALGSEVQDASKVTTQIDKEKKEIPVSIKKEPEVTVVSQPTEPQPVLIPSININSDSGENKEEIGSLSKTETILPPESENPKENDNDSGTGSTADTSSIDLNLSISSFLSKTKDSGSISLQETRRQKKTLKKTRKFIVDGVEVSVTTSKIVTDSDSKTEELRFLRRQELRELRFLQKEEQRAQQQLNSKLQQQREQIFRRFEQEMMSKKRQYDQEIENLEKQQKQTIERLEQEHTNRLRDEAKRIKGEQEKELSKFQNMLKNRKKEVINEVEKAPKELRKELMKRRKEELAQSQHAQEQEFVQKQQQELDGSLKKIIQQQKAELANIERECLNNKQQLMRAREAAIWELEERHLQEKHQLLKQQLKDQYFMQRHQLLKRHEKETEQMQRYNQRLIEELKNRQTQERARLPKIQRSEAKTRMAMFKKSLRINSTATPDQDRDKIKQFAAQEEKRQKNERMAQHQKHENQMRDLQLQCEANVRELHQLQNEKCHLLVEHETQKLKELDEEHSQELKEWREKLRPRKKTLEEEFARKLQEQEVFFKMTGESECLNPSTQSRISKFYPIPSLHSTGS
# Chain of IRAK4 (Q9NWZ3 whole entry): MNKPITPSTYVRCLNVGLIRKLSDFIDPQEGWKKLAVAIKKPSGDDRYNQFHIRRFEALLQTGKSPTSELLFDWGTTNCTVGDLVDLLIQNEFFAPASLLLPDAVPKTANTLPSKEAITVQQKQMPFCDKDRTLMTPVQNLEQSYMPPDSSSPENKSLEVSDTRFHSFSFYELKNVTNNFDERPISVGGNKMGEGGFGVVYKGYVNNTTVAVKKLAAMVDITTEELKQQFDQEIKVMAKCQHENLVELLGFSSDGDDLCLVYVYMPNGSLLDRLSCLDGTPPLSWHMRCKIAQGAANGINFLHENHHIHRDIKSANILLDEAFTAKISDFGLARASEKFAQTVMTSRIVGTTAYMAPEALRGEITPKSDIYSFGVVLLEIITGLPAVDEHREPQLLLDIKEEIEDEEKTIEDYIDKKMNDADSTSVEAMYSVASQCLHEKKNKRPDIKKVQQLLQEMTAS
# Chain of PI4KB (Q9UBF8 whole entry): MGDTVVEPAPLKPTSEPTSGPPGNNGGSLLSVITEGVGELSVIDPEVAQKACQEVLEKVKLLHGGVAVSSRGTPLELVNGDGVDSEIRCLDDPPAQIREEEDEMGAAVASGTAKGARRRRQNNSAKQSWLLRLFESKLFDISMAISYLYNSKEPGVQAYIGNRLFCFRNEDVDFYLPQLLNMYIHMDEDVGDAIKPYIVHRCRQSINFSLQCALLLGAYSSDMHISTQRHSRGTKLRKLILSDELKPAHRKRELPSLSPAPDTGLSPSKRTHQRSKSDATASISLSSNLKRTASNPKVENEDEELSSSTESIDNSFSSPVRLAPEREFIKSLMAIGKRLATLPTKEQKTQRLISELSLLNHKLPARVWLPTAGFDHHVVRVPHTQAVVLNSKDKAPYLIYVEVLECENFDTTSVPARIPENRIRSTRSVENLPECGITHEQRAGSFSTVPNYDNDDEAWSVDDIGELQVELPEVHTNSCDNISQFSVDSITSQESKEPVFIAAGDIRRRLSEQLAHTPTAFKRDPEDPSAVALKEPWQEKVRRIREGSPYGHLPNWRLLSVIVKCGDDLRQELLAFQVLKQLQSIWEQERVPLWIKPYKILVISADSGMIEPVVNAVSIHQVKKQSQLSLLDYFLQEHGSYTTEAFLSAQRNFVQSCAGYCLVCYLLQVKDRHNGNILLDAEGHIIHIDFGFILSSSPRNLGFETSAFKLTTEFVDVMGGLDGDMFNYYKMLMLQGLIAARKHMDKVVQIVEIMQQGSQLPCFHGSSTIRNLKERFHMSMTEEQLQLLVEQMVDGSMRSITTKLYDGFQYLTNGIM
structure (smiles),measurement,setting,value
"COc1cc(NS(=O)(=O)C2CC2)ccc1-c1cnc(N)c(-c2ccc3c(c2)CCNC3=O)c1 [Compound I-50, N-(4-(6-amino-5-(1-oxo-1,2,3,4-tetrahydroisoquinolin-6-yl)pyridin-3-yl)-3-methoxyphenyl) cyclopropanesulfonamide]",% inhibition,"ABL, ARG; 10 μM, range class",0.0%
same,inhibition (10 μM),"ABL, ARG",−53.7%
same,inhibition at 10 µM,ATR; [3],0%
same,inhibition at 10 µM,ATR; read-out: inhibition (10 μM),17.1%
same,inhibition at 10 µM,CDK5; [3],0%
same,inhibition at 10 µM,CDK5; read-out: inhibition (10 μM),11.3%
same,inhibition at 10 µM,CK1a; [3],0%
same,inhibition at 10 µM,CK1a; read-out: inhibition (10 μM),-20.9%
same,inhibition at 10 µM,CLK2; [3],0%
same,inhibition at 10 µM,CLK2; read-out:,10.8%
same,inhibition at 10 µM,CSK; [3],0%
same,inhibition at 10 µM,CSK; read-out: inhibition (10 μM),-4.3%
same,inhibition at 10 µM,CaMK1d; [3],0%
same,inhibition at 10 µM,CaMK1d; read-out: inhibition (10 μM),10.6%
same,% inhibition,"[1]; 10 μM, range class",0.0%
same,inhibition (10 μM),[1],26.8%
same,inhibition at 10 µM,CaMK2g; [3],0%
same,inhibition at 10 µM,CaMK2g; read-out: inhibition (10 μM),15.6%
same,inhibition at 10 µM,Erk1; [3],0%
same,inhibition at 10 µM,Erk1; read-out: inhibition (10 μM),29%
same,inhibition at 10 µM,Erk2; [3],0%
same,inhibition at 10 µM,Erk2; read-out: inhibition (10 μM),34.5%
same,inhibition at 10 µM,GSK3A; [3],75 to 90%
same,inhibition at 10 µM,GSK3A; read-out: inhibition (10 μM),77.4%
same,inhibition at 10 µM,IKKb; [3],0%
same,inhibition at 10 µM,IKKb; read-out: inhibition (10 μM),-26.2%
same,inhibition at 10 µM,ILK; [3],0%
same,inhibition at 10 µM,ILK; read-out: inhibition (10 μM),-18.8%
same,inhibition at 10 µM,IRAK4; [3],0%
same,inhibition at 10 µM,IRAK4; read-out: inhibition (10 μM),19.6%
same,inhibition at 10 µM,MAP2K6; [3],0%
same,inhibition at 10 µM,MAP2K6; read-out: inhibition (10 μM),10.9%
same,inhibition at 10 µM,MARK2; [3],0%
same,inhibition at 10 µM,MARK2; read-out: inhibition (10 μM),-8.6%
same,inhibition at 10 µM,MARK3; [3],0%
same,inhibition at 10 µM,MARK3; read-out: inhibition (10 μM),-17.3%
same,inhibition at 10 µM,MAST3; [3],0%
same,inhibition at 10 µM,MAST3; read-out: inhibition (10 μM),-0.5%
same,inhibition at 10 µM,MLK3; [3],35 to 40%
same,inhibition at 10 µM,MLK3; read-out: inhibition (10 μM),40.9%
same,inhibition at 10 µM,NDR1; [3],0%
same,inhibition at 10 µM,NDR1; read-out: inhibition (10 μM),20.2%
same,inhibition at 10 µM,NEK1; [3],0%
same,inhibition at 10 µM,NEK1; read-out: inhibition (10 μM),16.8%
same,inhibition at 10 µM,NEK8; [3],0%
same,inhibition at 10 µM,NEK8; read-out: inhibition (10 μM),-8.1%
same,inhibition at 10 µM,PI4KB; [3],0%
same,inhibition at 10 µM,PI4KB; read-out: inhibition (10 μM),0%
same,inhibition at 10 µM,PIK3C3; [3],0%
same,inhibition at 10 µM,PIK3C3; read-out: inhibition (10 μM),-32.5%
same,inhibition at 10 µM,PIK3CG; [3],0%
same,inhibition at 10 µM,PIK3CG; read-out: inhibition (10 μM),-74.9%
same,% inhibition,"[2]; 10 μM, range class",0.0%
same,inhibition (10 μM),[2],15.8%
same,inhibition at 10 µM,RSK2 domain2; [3],0%
same,inhibition at 10 µM,RSK2 domain2; read-out: inhibition (10 μM),-1.4%
same,inhibition at 10 µM,SLK; [3],50 to 75%
same,inhibition at 10 µM,SLK; read-out: inhibition (10 μM),70.6%
same,inhibition at 10 µM,SRPK1; [3],0%
same,inhibition at 10 µM,SRPK1; read-out: inhibition (10 μM),-9.2%
same,inhibition at 10 µM,STLK3; [3],0%
same,inhibition at 10 µM,STLK3; read-out: inhibition (10 μM),-12.3%
same,% inhibition,"TAO1, TAO3; 10 μM, range class",0.0%
same,inhibition (10 μM),"TAO1, TAO3",17.8%
same,% inhibition,"p38d, p38g; 10 μM, range class",0.0%
same,inhibition (10 μM),"p38d, p38g",7.4%

# From patent US10710978B2, “STK4 inhibitors for treatment of hematologic malignancies” (Dana-Farber Cancer Institute, Inc., priority 2015, dated 2020)
